pIC50: −log10 of the molar value. A value given as a limit tells only on which side of the number the result lay.

In patent publication US12209087B2, “AKT1 modulators” (Alterome Therapeutics, Inc., priority 2022, dated 2025) one finds IC50 data, which are given here for 27 compounds.

The target of the first experiment is T1, full length AKT E17K (Homo sapiens, UniProt P31749, E17K).
T1 construct: host or cells: HEK-293 (ATCC CRL-1573)
T1 sequence (P31749 whole entry E17K): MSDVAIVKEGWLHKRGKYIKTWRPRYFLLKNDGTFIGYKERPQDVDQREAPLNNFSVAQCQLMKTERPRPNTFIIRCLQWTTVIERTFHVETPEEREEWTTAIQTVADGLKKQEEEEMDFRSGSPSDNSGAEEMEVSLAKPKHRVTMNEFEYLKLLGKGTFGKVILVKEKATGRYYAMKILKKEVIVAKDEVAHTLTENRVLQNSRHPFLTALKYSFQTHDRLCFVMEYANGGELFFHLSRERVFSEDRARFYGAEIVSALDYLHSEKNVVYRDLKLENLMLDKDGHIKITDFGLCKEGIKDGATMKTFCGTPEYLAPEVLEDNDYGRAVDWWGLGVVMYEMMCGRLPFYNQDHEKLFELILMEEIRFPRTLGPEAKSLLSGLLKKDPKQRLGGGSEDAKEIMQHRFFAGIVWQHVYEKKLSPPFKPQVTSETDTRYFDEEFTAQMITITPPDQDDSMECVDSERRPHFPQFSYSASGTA
Nature of the experiment: NanoBRET Target Engagement (TE) Assay. In kind it is cell-based. Particulars: competitive displacement of tracer in cells, read-out: AKT1 E17K IC50. The gist of the method: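 Compound and tracer incubated 2 h before luminescence at donor 450 nm and acceptor 600 nm, with extracellular signal inhibited. EC50 by sigmoidal variable-slope regression.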
Consider `N#Cc1nccc(NC2CCN(Cc3ccc(-n4c(-c5cccnc5N)nc5ccc(-c6cn[nH]n6)nc54)cc3)CC2)n1` [Example 613, 4-((1-(4-(2-(2-Aminopyridin-3-yl)-5-(2H-1,2,3-triazol-4-yl)-3H-imidazo[4,5-b]pyridin-3-yl)benzyl)piperidin-4-yl)amino)pyrimidine-2-carbonitrile], for which the pIC50 was over 7.82. For `N#Cc1ccnc(N2CCN(Cc3ccc(-n4c(-c5cccnc5N)nc5ccc(-c6ccccc6C#N)nc54)cc3)CC2)n1` [Example 322, 2-(4-(4-(2-(2-Aminopyridin-3-yl)-5-(2-cyanophenyl)-3H-imidazo[4,5-b]pyridin-3-yl)benzyl)piperazin-1-yl)pyrimidine-4-carbonitrile], the pIC50 was 7.22 to 7.82. On the same count and under the same terms, with `N#Cc1nccc(N2CCN(Cc3ccc(-n4c(-c5cccnc5N)nc5ccc(-c6ccc(=O)[nH]c6)nc54)cc3)CC2)n1` [Example 332, 4-(4-(4-(2-(2-Aminopyridin-3-yl)-5-(6-oxo-1,6-dihydropyridin-3-yl)-3H-imidazo[4,5-b]pyridin-3-yl)benzyl)piperazin-1-yl)pyrimidine-2-carbonitrile] the figure was 5.00 to 6.22. Turning to `Cc1ccnc(-c2ccc3nc(-c4cccnc4N)n(-c4ccc(CN5CCC(Nc6ccnc(C#N)n6)CC5)cc4)c3n2)c1` [Example 596, 4-((1-(4-(2-(2-Aminopyridin-3-yl)-5-(4-methylpyridin-2-yl)-3H-imidazo[4,5-b]pyridin-3-yl)benzyl)piperidin-4-yl)amino)pyrimidine-2-carbonitrile], the pIC50 is over 7.82. Regarding `CN(c1ccnc(C#N)n1)C1CCN(Cc2ccc(-n3c(-c4cccnc4N)nc4ccc(-c5ccc(F)cc5)nc43)cc2)CC1` [Example 541, 4-((1-(4-(2-(2-aminopyridin-3-yl)-5-(4-fluorophenyl)-3H-imidazo[4,5-b]pyridin-3-yl)benzyl)piperidin-4-yl)(methyl)amino)pyrimidine-2-carbonitrile], the pIC50 was over 7.82. On the same count and under the same terms, the value for `N#Cc1nccc(NC2CCN(Cc3ccc(-n4c(-c5cccnc5N)nc5ccc(-c6ccc(OCF)nc6)nc54)cc3)CC2)n1` [Example 606, 4-((1-(4-(2-(2-Aminopyridin-3-yl)-5-(6-(fluoromethoxy)pyridin-3-yl)-3H-imidazo[4,5-b]pyridin-3-yl)benzyl)piperidin-4-yl)amino)pyrimidine-2-carbonitrile] was over 7.82; that for `N#Cc1nccc(NC2CCN(Cc3ccc(-n4c(-c5cccnc5N)nc5ccc(-c6ccc(OC7CC7)nc6)nc54)cc3)CC2)n1` [Example 641, 4-((1-(4-(2-(2-Aminopyridin-3-yl)-5-(6-cyclopropoxypyridin-3-yl)-3H-imidazo[4,5-b]pyridin-3-yl)benzyl)piperidin-4-yl)amino)pyrimidine-2-carbonitrile] was over 7.82; that for `N#Cc1ncnc(N2CCC3(CCN(Cc4ccc(-n5c(-c6cccnc6N)nc6ccc(-c7ccccc7)nc65)cc4)CC3)C2)n1` [Example 363, 4-(8-(4-(2-(2-Aminopyridin-3-yl)-5-phenyl-3H-imidazo[4,5-b]pyridin-3-yl)benzyl)-2,8-diazaspiro[4.5]decan-2-yl)-1,3,5-triazine-2-carbonitrile] was 7.22 to 7.82. The same measure, in the same setting: with `N#Cc1cnc2c(c1)nc(-c1cccnc1N)n2-c1ccc(CN2CCC(Nc3ccnc(C#N)n3)CC2)cc1` [Example 411, 2-(2-Aminopyridin-3-yl)-3-(4-((4-((2-cyanopyrimidin-4-yl)amino)piperidin-1-yl)methyl)phenyl)-3H-imidazo[4,5-b]pyridine-6-carbonitrile] the figure was 7.22 to 7.82; with `Cn1ccc(-c2ccc3nc(-c4cccnc4N)n(-c4ccc(CN5CCN(c6ccnc(C#N)n6)CC5)cc4)c3n2)cc1=O` [Example 349, 4-(4-(4-(2-(2-Aminopyridin-3-yl)-5-(1-methyl-2-oxo-1,2-dihydropyridin-4-yl)-3H-imidazo[4,5-b]pyridin-3-yl)benzyl)piperazin-1-yl)pyrimidine-2-carbonitrile], 7.22 to 7.82; with `N#Cc1nccc(NC2CCN(Cc3ccc(-n4c(-c5cccnc5N)nc5ccc(-c6ccc(F)nc6)nc54)cc3)CC2)n1` [Example 404, 4-((1-(4-(2-(2-Aminopyridin-3-yl)-5-(6-fluoropyridin-3-yl)-3H-imidazo[4,5-b]pyridin-3-yl)benzyl)piperidin-4-yl)amino)pyrimidine-2-carbonitrile], over 7.82.

For `N#Cc1nccc(NC2CCN(Cc3ccc(-n4c(-c5cccnc5N)nc5ccc(-c6ccc[nH]c6=O)nc54)cc3)CC2)n1` [Example 381, 4-((1-(4-(2-(2-Aminopyridin-3-yl)-5-(2-oxo-1,2-dihydropyridin-3-yl)-3H-imidazo[4,5-b]pyridin-3-yl)benzyl)piperidin-4-yl)amino)pyrimidine-2-carbonitrile], the pIC50 is over 7.82. Consider `N#Cc1cc(N2C[C@@H]3C[C@H]2CN3Cc2ccc(-n3c(-c4cccnc4N)nc4ccc(-c5ccccc5)nc43)cc2)ncn1` [Example 376, 6-((1S,4S)-5-(4-(2-(2-Aminopyridin-3-yl)-5-phenyl-3H-imidazo[4,5-b]pyridin-3-yl)benzyl)-2,5-diazabicyclo[2.2.1]heptan-2-yl)pyrimidine-4-carbonitrile], for which the pIC50 was 6.22 to 7.22.

Still in this experiment, the particulars now being: competitive tracer displacement in living cells, read-out: AKT1 E17K IC50.
Turning to `N#Cc1cncc(NC2CCN(Cc3ccc(-n4c(-c5cccnc5N)nc5cccnc54)cc3)CC2)c1` [Example 74, 5-((1-(4-(2-(2-Aminopyridin-3-yl)-3H-imidazo[4,5-b]pyridin-3-yl)benzyl)piperidin-4-yl)amino)nicotinonitrile], the pIC50 is 5.00 to 6.22. On to `N#Cc1cc(NC2CCN(Cc3ccc(-n4c(-c5cccnc5N)nc5ccc(-c6ccccc6)nc54)cc3)CC2)ncn1` [Example 91, 6-((1-(4-(2-(2-Aminopyridin-3-yl)-5-phenyl-3H-imidazo[4,5-b]pyridin-3-yl)benzyl)piperidin-4-yl)amino)pyrimidine-4-carbonitrile], for which the pIC50 is over 7.82. Still for that read-out and setting: the value for `N#Cc1cnnc(NCc2ccc(-n3c(-c4cccnc4N)nc4cccnc43)cc2)c1` [Example 50, 6-((4-(2-(2-Aminopyridin-3-yl)-3H-imidazo[4,5-b]pyridin-3-yl)benzyl)amino)pyridazine-4-carbonitrile] was 5.00 to 6.22; that for `Cn1cccc(-c2ccc3nc(-c4cccnc4N)n(-c4ccc(CN5CCN(c6ccnc(C#N)n6)CC5)cc4)c3n2)c1=O` [Example 260, 4-(4-(4-(2-(2-aminopyridin-3-yl)-5-(1-methyl-2-oxo-1,2-dihydropyridin-3-yl)-3H-imidazo[4,5-b]pyridin-3-yl)benzyl)piperazin-1-yl)pyrimidine-2-carbonitrile] was 7.22 to 7.82; that for `N#Cc1cccc(C(=O)NC2CCN(Cc3ccc(-n4c(-c5cccnc5N)nc5cccnc54)cc3)CC2)n1` [Example 30, N-(1-(4-(2-(2-Aminopyridin-3-yl)-3H-imidazo[4,5-b]pyridin-3-yl)benzyl)piperidin-4-yl)-6-cyanopicolinamide] was 5.00 to 6.22.

Take `N#Cc1cccc(C(=O)N2CCN(Cc3ccc(-n4c(-c5cccnc5N)nc5ccc(-c6ccccc6)nc54)cc3)CC2)n1` [Example 138, 6-(4-(4-(2-(2-Aminopyridin-3-yl)-5-phenyl-3H-imidazo[4,5-b]pyridin-3-yl)benzyl)piperazine-1-carbonyl)picolinonitrile]: the pIC50 is 6.22 to 7.22. Same read-out and setting: the value for `N#Cc1ncccc1C(=O)NCc1ccc(-n2c(-c3cccnc3N)nc3cccnc32)cc1` [Example 98, N-(4-(2-(2-Aminopyridin-3-yl)-3H-imidazo[4,5-b]pyridin-3-yl)benzyl)-2-cyanonicotinamide] was 5.00 to 6.22.

On to `C[C@H]1CN(Cc2ccc(-n3c(-c4cccnc4N)nc4ccc(-c5ccccc5)nc43)cc2)CCN1c1cc(C#N)ncn1` [Example 208, (S)-6-(4-(4-(2-(2-Aminopyridin-3-yl)-5-phenyl-3H-imidazo[4,5-b]pyridin-3-yl)benzyl)-2-methylpiperazin-1-yl)pyrimidine-4-carbonitrile], for which the pIC50 is 6.22 to 7.22. Still for that read-out and setting: the value for `N#Cc1ccnc(N2CC3CCC2CN3Cc2ccc(-n3c(-c4cccnc4N)nc4ccc(-c5ccccc5)nc43)cc2)n1` (stereo not drawn) [Example 220, 2-(5-(4-(2-(2-Aminopyridin-3-yl)-5-phenyl-3H-imidazo[4,5-b]pyridin-3-yl)benzyl)-2,5-diazabicyclo[2.2.2]octan-2-yl)pyrimidine-4-carbonitrile] was 6.22 to 7.22. Same read-out and setting: the value for `N#Cc1nccc(N2CCN(Cc3ccc(-n4c(-c5cccnc5N)nc5ccc(N6CCOCC6)nc54)cc3)CC2)n1` [Example 235, 4-(4-(4-(2-(2-Aminopyridin-3-yl)-5-morpholino-3H-imidazo[4,5-b]pyridin-3-yl)benzyl)piperazin-1-yl)pyrimidine-2-carbonitrile] was 6.22 to 7.22.

On to `C[C@@H]1CN(Cc2ccc(-n3c(-c4cccnc4N)nc4ccc(-c5ccccc5)nc43)cc2)C[C@@H](C)N1c1cc(C#N)ncn1` [Example 197, 6-((2R,6R)-4-(4-(2-(2-aminopyridin-3-yl)-5-phenyl-3H-imidazo[4,5-b]pyridin-3-yl)benzyl)-2,6-dimethylpiperazin-1-yl)pyrimidine-4-carbonitrile], for which the pIC50 was 6.22 to 7.22.

Take `N#Cc1cc(NCc2ccc(-n3c(-c4cccnc4N)nc4cccnc43)cc2)ccn1` [Example 127, 4-((4-(2-(2-Aminopyridin-3-yl)-3H-imidazo[4,5-b]pyridin-3-yl)benzyl)amino)picolinonitrile]: the pIC50 was 5.00 to 6.22. Same read-out and setting: the value for `N#Cc1ncnc(N2CC3(CN(Cc4ccc(-n5c(-c6cccnc6N)nc6ccc(-c7ccccc7)nc65)cc4)C3)C2)n1` [Example 303, 4-(6-(4-(2-(2-Aminopyridin-3-yl)-5-phenyl-3H-imidazo[4,5-b]pyridin-3-yl)benzyl)-2,6-diazaspiro[3.3]heptan-2-yl)-1,3,5-triazine-2-carbonitrile] was over 7.82. On the same count and under the same terms, the value for `N#Cc1ccnc(N2CCN(Cc3ccc(-n4c(-c5cccnc5N)nc5ccc(-c6ccc(F)cc6)nc54)cc3)CC2)n1` [Example 243, 2-(4-(4-(2-(2-Aminopyridin-3-yl)-5-(4-fluorophenyl)-3H-imidazo[4,5-b]pyridin-3-yl)benzyl)piperazin-1-yl)pyrimidine-4-carbonitrile] was 6.22 to 7.22.
